Earlier results, collected in US4937073A, “Reformed vetiver oil and vetiverol, process for preparing the same, and perfumery composition comprising the same” (Kao Corporation, priority 1988, dated 1990).
Where two headings read alike, the source gives them in different places.

For `O=C(O)C(O)C(O)C(=O)O` (centres unmarked) [tartaric acid], the pKa is given as 2.82 and the pKa (listed as Tartaric acid) is given as 1.04.
